Numbered stars: 1 amine (or outer) side, 2 acyl side, 3 side chain; on linkers, the order of the positions; unused ones are H or OH. Bridge positions count the residues as written; N and C are the ends. Square brackets hold non-standard residues; d marks the D form. Peptide text beside a SMILES is read from it. I, II: the chains in the order shown. Actinocin(9to1) = Cc1c2oc3c(C)ccc(C(=O)[*:1])c3nc-2c(C(=O)[*:2])c(N)c1=O; NMeV = CN[C@H](C(=O)O)C(C)C; Sar = CNCC(=O)O
What was measured:
Settings in all cases: human; call rule not given here
Hepatotoxicity [1] = test: FDA HLAED, alkaline phosphatase increase
Hepatotoxicity [2] = test: FDA HLAED, liver enzyme composite activity
Hepatotoxicity [3] = test: FDA HLAED, serum glutamic oxaloacetic transaminase (SGOT) increase
Hepatotoxicity [4] = test: FDA HLAED, serum glutamic pyruvic transaminase (SGPT) increase

SMILES | Alkaline Phosphatase Increase - Activity Score (Hepatotoxicity [1]) | Alkaline Phosphatase Increase - Index Value (Hepatotoxicity [1]) | Alkaline Phosphatase Increase - Number of Reports (Hepatotoxicity [1]) | Composite Activity - Active (Hepatotoxicity [2]) | Composite Activity - Marginal (Hepatotoxicity [2]) | SGOT Increase - Activity Score (Hepatotoxicity [3]) | SGOT Increase - Index Value (Hepatotoxicity [3]) | SGOT Increase - Number of Reports (Hepatotoxicity [3]) | SGPT Increase - Activity Score (Hepatotoxicity [4]) | SGPT Increase - Index Value (Hepatotoxicity [4]) | SGPT Increase - Number of Reports (Hepatotoxicity [4]) | Composite Activity - Score (Hepatotoxicity [2]) | Composite Activity - Active (Hepatotoxicity [2]; Liver) | Composite Activity - Marginal (Hepatotoxicity [2]; Liver) | Composite Activity - Score (Hepatotoxicity [2]; Liver)
CSc1ccc2c(c1)N(CCC1CCCCN1C)c1ccccc1S2 (stereo not given) [THIORIDAZINE] | Marginally Active | 3.2 | >= 4 | 0 | 1 |  |  |  |  |  |  |  |  |  | 
FC(F)(F)C(Cl)Br (stereo not given) [HALOTHANE] |  |  |  | 1 | 0 | Active | 16.5 | >= 4 |  |  |  |  |  |  | 
Cc1c2oc3c(C)ccc(C(=O)N[C@@H]4C(=O)N[C@H](C(C)C)C(=O)N5CCC[C@H]5C(=O)N(C)CC(=O)N(C)[C@@H](C(C)C)C(=O)O[C@@H]4C)c3nc-2c(C(=O)N[C@@H]2C(=O)N[C@H](C(C)C)C(=O)N3CCC[C@H]3C(=O)N(C)CC(=O)N(C)[C@@H](C(C)C)C(=O)O[C@@H]2C)c(N)c1=O [DACTINOMYCIN] (I: T[dV]P[Sar][NMeV] / II: T[dV]P[Sar][NMeV]; ester I:1-I:C, II:1-II:C; linker I:N-II:N via Actinocin(9to1)) |  |  |  | 2 | 0 | Active | 29.6 | >= 4 | Active | 23.7 | >= 4 | Active |  |  | 
CC(C)Cc1ccc(C(C)C(=O)O)cc1 (stereo not given) [IBUPROFEN] | Marginally Active | No Shipping Units | >= 4 | 0 | 3 | Marginally Active | No Shipping Units | >= 4 | Marginally Active | No Shipping Units | >= 4 |  |  |  | 
CCCCCCCCCCCCCCCCCC(=O)O.CC[C@H]1OC(=O)[C@H](C)[C@@H](O[C@H]2C[C@@](C)(OC)[C@@H](O)[C@H](C)O2)[C@H](C)[C@@H](O[C@@H]2O[C@H](C)C[C@H](N(C)C)[C@H]2OC(C)=O)[C@](C)(O)C[C@@H](C)C(=O)[C@H](C)[C@@H](O)[C@]1(C)O [ERYTHROMYCIN ACISTRATE] | Active | 7.3 | >= 4 | 3 | 0 | Active | 7.9 | >= 4 | Active | 8.5 | >= 4 | Active |  |  | 
COc1ccc2c(c1)c(CC(=O)O)c(C)n2C(=O)c1ccc(Cl)cc1 [INDOMETHACIN] | Marginally Active | 3.1 | >= 4 | 0 | 2 | Marginally Active | 3.8 | >= 4 |  |  |  |  |  |  | 
CC(O)(P(=O)(O)O)P(=O)(O)O [ETIDRONIC ACID] | Active | 8.6 | >= 4 | 1 | 0 |  |  |  |  |  |  |  |  |  | 
O=C(O)c1cc(/N=N/c2ccc(S(=O)(=O)Nc3ccccn3)cc2)ccc1O [SULFASALAZINE] |  |  |  | 1 | 0 |  |  |  | Active | 4 | >= 4 |  |  |  | 
Cc1cccc(Nc2ccccc2C(=O)O)c1C [MEFENAMIC ACID] |  |  |  |  |  | Active | 26 | >= 4 | Active | 19.5 | < 4 |  | 2 | 0 | Active
CNCCC=C1c2ccccc2CCc2ccccc21 [NORTRIPTYLINE] | Active | 15.4 | >= 4 |  |  |  |  |  | Marginally Active | 11.6 | < 4 |  | 1 | 1 | 
CN(C)c1ccc(O)c2c1C[C@H]1C[C@H]3[C@H](N(C)C)C(O)=C(C(N)=O)C(=O)[C@@]3(O)C(O)=C1C2=O [MINOCYCLINE] |  |  |  | 0 | 2 | Marginally Active | No Shipping Units | >= 4 | Marginally Active | No Shipping Units | >= 4 |  |  |  | 
CC(=O)N[C@@H](CS)C(=O)O [ACETYLCYSTEINE] |  |  |  | 1 | 0 |  |  |  | Active | 4.8 | >= 4 |  |  |  | 
Sc1ncnc2nc[nH]c12 [MERCAPTOPURINE ANHYDROUS] |  |  |  |  |  | Active | 4.4 | >= 4 | Active | 5.2 | >= 4 |  | 2 | 0 | Active
C#C[C@]1(O)CC[C@H]2[C@@H]3CCC4=Cc5oncc5C[C@]4(C)[C@H]3CC[C@@]21C [DANAZOL] |  |  |  | 1 | 0 |  |  |  | Active | 10.2 | >= 4 |  |  |  | 
CCOc1ccc2ccccc2c1C(=O)N[C@@H]1C(=O)N2[C@@H]1SC(C)(C)[C@@H]2C(=O)O [NAFCILLIN] | Active | 10.9 | >= 4 | 1 | 0 |  |  |  |  |  |  |  |  |  | 
NCC(CC(=O)O)c1ccc(Cl)cc1 (stereo not given) [BACLOFEN] | Active | 5.4 | >= 4 | 2 | 0 | Active | 5.4 | >= 4 |  |  |  | Active |  |  | 
CN1CCN(C2=Nc3ccccc3Oc3ccc(Cl)cc32)CC1 [LOXAPINE] |  |  |  | 2 | 0 | Active | 9.9 | >= 4 | Active | 9.9 | >= 4 | Active |  |  | 
Cc1ncc([N+](=O)[O-])n1CCO [METRONIDAZOLE] | Active | 6.2 | >= 4 | 1 | 0 |  |  |  |  |  |  |  |  |  | 
C=CCC1(C(C)C#CCC)C(=O)N=C(O)N(C)C1=O (stereo not given) [METHOHEXITAL] |  |  |  | 0 | 0 |  |  |  |  |  |  |  |  |  | 
CC(=O)OCC(=O)[C@@]1(O)[C@H](C)C[C@H]2[C@@H]3CCC4=CC(=O)C=C[C@]4(C)[C@@]3(F)[C@@H](O)C[C@@]21C [DEXAMETHASONE ACETATE] |  |  |  | 0 | 0 |  |  |  |  |  |  |  |  |  | 
CC[C@@H](CO)NCCN[C@@H](CC)CO [ETHAMBUTOL] |  |  |  | 0 | 0 |  |  |  |  |  |  |  |  |  | 
CCCCCCC(=O)OCCN1CCN(CCCN2c3ccccc3Sc3ccc(C(F)(F)F)cc32)CC1 [FLUPHENAZINE ENANTHATE] |  |  |  | 0 | 0 |  |  |  |  |  |  |  |  |  | 

— ChEMBL document CHEMBL1697781, “Assessment of the health effects of chemicals in humans: II. Construction of an adverse effects database for QSAR modeling” (Curr Drug Discov Technol, 2004)
